Data from patent publication US7919517B2, “Indazole derivatives” (Kyowa Hakko Kirin Co., Ltd., priority 2003, dated 2011).

Experiments:
Assay type in all cases: cell-based
[1] = test system: human chronic myeloid leukemia cell line K562; assay: Cytostatic activity on leukemia cell line K562 (WST-1); conditions: 72 hours, K562 cells; for inhibition at 10 µM: Homo sapiens, 10 μmol/L, read-out: cytostatic rate K562 (%) (10 μmol/L)
Procedure, shortened: (§1)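 Cells in RPMI 1640/10% FBS were pre-cultured 4 h, then exposed to test compound at 10 μmol/L (0.1% DMSO) for 72 h at 37 °C. WST-1 read at 450 nm (690 nm reference); cytostatic rate = 100 − growth relative to DMSO control (100%) and medium blank (0%).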

[2] = test system: human acute myeloid leukemia cell line MV-4-11; assay: Cytostatic activity on leukemia cell line MV-4-11 (WST-1); conditions: 72 hours, MV-4-11 cells; for inhibition at 10 µM: Homo sapiens, MV4-11, 10 μmol/L, read-out: cytostatic rate MV-4-11 (%) (10 μmol/L)
Procedure, shortened: as §1

[3] = test system: human colon cancer cell line Colo205; assay: Cytostatic activity on solid carcinoma cell line Colo205 (WST-1); conditions: 72 hours, Colo205 cells; for inhibition at 10 µM: Homo sapiens, COLO 205, 10 μmol/L, read-out: cytostatic rate Colo205 (%) (10 μmol/L)
Procedure, shortened: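 Colo205 cells in RPMI 1640 with 10% FBS were pre-cultured 24 h, then exposed to compound at 10 μmol/L final (0.1% DMSO) for 72 h at 37° C. WST-1 was added for 2 h and A450 (ref 690 nm) read. Cytostatic rate = 100 − relative growth, with DMSO control set at 100% and medium blank at 0%.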

[4] = test system: human acute myeloid leukemia cell line ML-1; assay: Cytostatic activity on leukemia cell line ML-1 (WST-1); conditions: 72 hours, ML-1 cells; for inhibition at 10 µM: Homo sapiens, ML1, 10 μmol/L, read-out: cytostatic rate ML-1 (%) (10 μmol/L)
Procedure, shortened: as §1

| Compound | inhibition at 10 µM [1] [%] | inhibition at 10 µM [2] [%] | inhibition at 10 µM [3] [%] | inhibition at 10 µM [4] [%] | cytostatic rate K562 (%) (10 μmol/L) [1] | cytostatic rate MV-4-11 (%) (10 μmol/L) [2] | cytostatic rate Colo205 (%) (10 μmol/L) [3] | cytostatic rate ML-1 (%) (10 μmol/L) [4] |
| --- | --- | --- | --- | --- | --- | --- | --- | --- |
| O=C(NN1CCN(C(=O)c2ccc(/C=C/c3n[nH]c4ccccc34)cc2)CC1)N1CCOCC1 [Compound 150, (E)-1-{4-[2-(1H-indazol-3-yl)vinyl]benzoyl}-4-(morpholinocarbonylamino)piperazine] | 90 | 97 | 88 | 67 | – | – | – | – |
| O=C(c1ccc(/C=C/c2n[nH]c3ccccc23)cc1)N1CCN(c2c(N3CCCCC3)c(=O)c2=O)CC1 [Compound 155, (E)-3-piperidino-4-{[4-(2-(1H-indazol-3-yl)vinyl)benzoyl]piperazin-1-yl}-3-cyclobutene-1,2-dione] | – | – | – | – | 96 | 97 | 88 | 79 |
| O=C(c1ccc(/C=C/c2n[nH]c3ccccc23)cc1)N1CCN(c2c(N3CCOCC3)c(=O)c2=O)CC1 [Compound 156, (E)-3-morpholino-4-{[4-(2-(1H-indazol-3-yl)vinyl)benzoyl]piperazin-1-yl}-3-cyclobutene-1,2-dione] | – | – | – | – | 94 | 99 | 92 | 85 |
| N[C@@H]1CCN(C(=O)c2ccc(/C=C/c3n[nH]c4ccccc34)cc2)C1 [Compound 158, (R)-(E)-1-{4-[2-(1H-Indazol-3-yl)vinyl]benzoyl}-3-aminopyrrolidine] | 90 | 98 | 91 | 80 | – | – | – | – |
| N[C@H]1CCN(C(=O)c2ccc(/C=C/c3n[nH]c4ccccc34)cc2)C1 [Compound 159, (S)-(E)-1-{4-[2-(1H-indazol-3-yl)vinyl]benzoyl}-3-aminopyrrolidine] | 93 | 99 | 92 | 86 | – | – | – | – |
